This is an account of results in patent publication US11591336B2 (Relay Therapeutics, Inc., priority 2017, dated 2023).

Where a name gives a salt, the structure may show the parent alone.

The target in this assay is SHP2 (Homo sapiens (Human), UniProt Q06124). The assay can be described thus: SHP2 Allosteric Inhibition Assay (DiFMUP prompt fluorescence). It is filed as biochemical. The conditions noted are these: 0.25 nM SHP2 activated with 0.5 μM peptide IRS1_pY1172(dPEG8)pY1222; substrate DiFMUP 100 μM; 25° C.
Sequence of SHP2 (Q06124 whole entry): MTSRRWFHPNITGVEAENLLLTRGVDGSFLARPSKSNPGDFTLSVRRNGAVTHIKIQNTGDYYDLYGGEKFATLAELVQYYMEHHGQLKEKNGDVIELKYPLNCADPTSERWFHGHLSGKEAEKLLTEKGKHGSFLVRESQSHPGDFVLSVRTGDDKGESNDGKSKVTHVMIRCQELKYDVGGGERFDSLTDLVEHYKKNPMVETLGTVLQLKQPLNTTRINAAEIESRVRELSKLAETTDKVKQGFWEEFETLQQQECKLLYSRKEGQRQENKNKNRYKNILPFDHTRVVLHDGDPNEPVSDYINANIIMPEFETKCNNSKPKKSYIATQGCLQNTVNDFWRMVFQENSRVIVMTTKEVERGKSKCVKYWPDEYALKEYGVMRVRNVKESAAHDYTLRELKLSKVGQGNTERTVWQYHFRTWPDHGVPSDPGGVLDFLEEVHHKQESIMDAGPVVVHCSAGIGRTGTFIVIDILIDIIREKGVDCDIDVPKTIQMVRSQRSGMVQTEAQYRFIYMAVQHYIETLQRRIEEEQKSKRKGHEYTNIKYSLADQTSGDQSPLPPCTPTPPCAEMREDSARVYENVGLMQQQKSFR
In general, IC50 refers to the concentration needed to halve the response being measured. Read a low IC50 as greater potency in that assay. Regarding `C[C@@H]1OCC2(CCN(c3cnc4c(N5CCCc6nc(C7=CCNCC7)ccc65)n[nH]c4n3)CC2)[C@@H]1N` [Compound 427, (3S,4S)-3-methyl-8-{3-[6-(1,2,3,6-tetrahydropyridin-4-yl)-1,2,3,4-tetrahydro-1,5-naphthyridin-1-yl]-1H-pyrazolo[3,4-b]pyrazin-6-yl}-2-oxa-8-azaspiro[4.5]decan-4-amine hydrochloride], the concentration for half-maximal inhibition (IC50) is less than 1000 nM.
The result for `Cc1nnc(-c2c(Cl)ccc3c2CCCN3c2n[nH]c3nc(N4CCC5(CC4)CO[C@@H](C)[C@H]5N)cnc23)o1` [Compound 429, (3S,4S)-8-{3-[6-chloro-5-(5-methyl-1,3,4-oxadiazol-2-yl)-1,2,3,4-tetrahydroquinolin-1-yl]-1H-pyrazolo[3,4-b]pyrazin-6-yl}-3-methyl-2-oxa-8-azaspiro[4.5]decan-4-amine] reads less than 1000 nM.
As for `C[C@@H]1OCC2(CCN(c3cnc4c(N5CC[C@H](C)c6nc(-c7ccn[nH]7)ccc65)n[nH]c4n3)CC2)[C@@H]1N` [Compound 430, (3S,4S)-3-methyl-8-{3-[(4S)-4-methyl-6-(1H-pyrazol-5-yl)-1,2,3,4-tetrahydro-1,5-naphthyridin-1-yl]-1H-pyrazolo[3,4-b]pyrazin-6-yl}-2-oxa-8-azaspiro[4.5]decan-4-amine], the IC50 was less than 1000 nM.
The result for `C[C@@H]1OCC2(CCN(c3cnc4c(N5CCCc6c(CO)cccc65)n[nH]c4n3)CC2)[C@@H]1N` [Compound 431, (1-{6-[(3S,4S)-4-amino-3-methyl-2-oxa-8-azaspiro[4.5]decan-8-yl]-1H-pyrazolo[3,4-b]pyrazin-3-yl}-1,2,3,4-tetrahydroquinolin-5-yl)methanol] reads less than 1000 nM; that for `C[C@@H]1CCN(c2n[nH]c3nc(N4CCC5(CC4)CO[C@@H](C)[C@H]5N)cnc23)c2ccc(-c3ccn[nH]3)nc21` [Compound 432], less than 1000 nM.
The result for `C[C@@H]1OCC2(CCN(c3cnc4c(N5CCCc6c(-c7ncon7)cccc65)n[nH]c4n3)CC2)[C@@H]1N` [Compound 433, (3S,4S)-3-methyl-8-{3-[5-(1,2,4-oxadiazol-3-yl)-1,2,3,4-tetrahydroquinolin-1-yl]-1H-pyrazolo[3,4-b]pyrazin-6-yl}-2-oxa-8-azaspiro[4.5]decan-4-amine] reads less than 1000 nM; that for `CNC(=O)Cc1cccc2c1CCCN2c1n[nH]c2nc(N3CCC4(CC3)CO[C@@H](C)[C@H]4N)cnc12` [Compound 434, 2-(1-{6-[(3S,4S)-4-amino-3-methyl-2-oxa-8-azaspiro[4.5]decan-8-yl]-1H-pyrazolo[3,4-b]pyrazin-3-yl}-1,2,3,4-tetrahydroquinolin-5-yl)-N-methylacetamide hydrochloride], less than 1000 nM; that for `C[C@@H]1OCC2(CCN(c3cnc4c(N5CCCc6c(CCO)cccc65)n[nH]c4n3)CC2)[C@@H]1N` [Compound 435], less than 1000 nM.
The result for `C[C@@H]1OCC2(CCN(c3cnc4c(N5CCCc6nc(/C=N\O)ccc65)n[nH]c4n3)CC2)[C@@H]1N` [Compound 436, (3S,4S)-8-(3-{6-[(1Z)-(hydroxyimino)methyl]-1,2,3,4-tetrahydro-1,5-naphthyridin-1-yl}-1H-pyrazolo[3,4-b]pyrazin-6-yl)-3-methyl-2-oxa-8-azaspiro[4.5]decan-4-amine hydrochloride] reads less than 1000 nM.
For the compound `CC(C)NC(=O)c1ccc2c(n1)[C@H](C)CCN2c1n[nH]c2nc(N3CCC4(CC3)CO[C@@H](C)[C@H]4N)cnc12` [Compound 438], the half-inhibitory concentration (IC50) is less than 1000 nM.
`C[C@@H]1OCC2(CCN(c3cnc4c(N5CCN(CCO)c6cc(C#N)ccc65)n[nH]c4n3)CC2)[C@@H]1N` [Compound 439] returned a concentration for half-maximal inhibition (IC50) of less than 1000 nM.
`C[C@@H]1OCC2(CCN(c3cnc4c(N5CCN(C)c6c(-c7cnn(C)c7)cccc65)n[nH]c4n3)CC2)[C@@H]1N` [Compound 440] showed an IC50 of less than 1000 nM.
`C[C@@H]1OCC2(CCN(c3cnc4c(N5CCCc6c(CC#N)cccc65)n[nH]c4n3)CC2)[C@@H]1N` [Compound 441] had an IC50 of less than 1000 nM.
In turn, `COCCNC(=O)c1ccc2c(n1)[C@@H](C)CCN2c1n[nH]c2nc(N3CCC4(CC3)CO[C@@H](C)[C@H]4N)cnc12` [Compound 443] registered an IC50 of less than 1000 nM.
In turn, `CO/N=C/c1ccc2c(n1)[C@@H](C)CCN2c1n[nH]c2nc(N3CCC4(CC3)CO[C@@H](C)[C@H]4N)cnc12` [Compound 444, (3S,4S)-8-{3-[(4S)-6-[(1E)-(methoxyimino)methyl]-4-methyl-1,2,3,4-tetrahydro-1,5-naphthyridin-1-yl]-1H-pyrazolo[3,4-b]pyrazin-6-yl}-3-methyl-2-oxa-8-azaspiro[4.5]decan-4-amine hydrochloride] had a half-inhibitory concentration (IC50) of less than 1000 nM.
The compound `C[C@@H]1OCC2(CCN(c3cnc4c(N5CC[C@H](C)c6nc(C(=O)NCc7cccnc7)ccc65)n[nH]c4n3)CC2)[C@@H]1N` [Compound 445] had an IC50 of less than 1000 nM.
`CC(C)NC(=O)c1ccc2c(n1)[C@@H](C)CCN2c1n[nH]c2nc(N3CCC4(CC3)CO[C@@H](C)[C@H]4N)cnc12` [Compound 446] gave a concentration for half-maximal inhibition (IC50) of less than 1000 nM.
`C[C@@H]1OCC2(CCN(c3cnc4c(N5CC[C@H](C)c6nc(C(=O)NCCO)ccc65)n[nH]c4n3)CC2)[C@@H]1N` [Compound 447]: the IC50 is less than 1000 nM.
The result for `C[C@@H]1CCN(c2n[nH]c3nc(N4CCC5(CC4)CO[C@@H](C)[C@H]5N)cnc23)c2ccc(-c3nnc[nH]3)nc21` [Compound 452, dihydrochloride] reads less than 1000 nM; that for `C[C@@H]1OCC2(CCN(c3cnc4c(N5CCN(CC(=O)N(C)C)c6cc(C#N)ccc65)n[nH]c4n3)CC2)[C@@H]1N` [Compound 453, 2-(4-{6-[(3S,4S)-4-amino-3-methyl-2-oxa-8-azaspiro[4.5]decan-8-yl]-1H-pyrazolo[3,4-b]pyrazin-3-yl}-7-cyano-1,2,3,4-tetrahydroquinoxalin-1-yl)-N,N-dimethylacetamide], less than 1000 nM; that for `C[C@@H]1OCC2(CCN(c3cnc4c(N5CC[C@H](C)c6nc(-c7nnc[nH]7)ccc65)n[nH]c4n3)CC2)[C@@H]1N` [Compound 454, (3S,4S)-3-methyl-8-{3-[(4S)-4-methyl-6-(4H-1,2,4-triazol-3-yl)-1,2,3,4-tetrahydro-1,5-naphthyridin-1-yl]-1H-pyrazolo[3,4-b]pyrazin-6-yl}-2-oxa-8-azaspiro[4.5]decan-4-amine], less than 1000 nM.
Then `C[C@@H]1OCC2(CCN(c3cnc4c(N5CCCc6c(CS(C)(=O)=O)cccc65)n[nH]c4n3)CC2)[C@@H]1N` [Compound 455], with less than 1000 nM; and `CC(C)S(=O)(=O)c1cccc2c1CCCN2c1n[nH]c2nc(N3CCC4(CC3)CO[C@@H](C)[C@H]4N)cnc12` [Compound 456], with less than 1000 nM.
In the case of `C[C@@H]1OCC2(CCN(c3cnc4c(N5CCCc6c5cccc6S(=O)(=O)C5CC5)n[nH]c4n3)CC2)[C@@H]1N` [Compound 457], the IC50 is less than 1000 nM.
The result for `C[C@@H]1OCC2(CCN(c3cnc4c(N5CCCc6c(CN7CCOCC7)cccc65)n[nH]c4n3)CC2)[C@@H]1N` [Compound 458] reads less than 1000 nM; that for `C[C@@H]1OCC2(CCN(c3cnc4c(N5CCCc6c(CN7CCOC7=O)cccc65)n[nH]c4n3)CC2)[C@@H]1N` [Compound 459], less than 1000 nM.
Then `COCCS(=O)(=O)c1cccc2c1CCCN2c1n[nH]c2nc(N3CCC4(CC3)CO[C@@H](C)[C@H]4N)cnc12` [Compound 460], with less than 1000 nM; and `COC(=O)Cc1cccc2c1CCCN2c1n[nH]c2nc(N3CCC4(CC3)CO[C@@H](C)[C@H]4N)cnc12` [Compound 461], with less than 1000 nM.
The compound `C=C(C)c1cccc2c1CCCN2c1n[nH]c2nc(N3CCC4(CC3)CO[C@@H](C)[C@H]4N)cnc12` [Compound 462] came in with an IC50 of less than 1000 nM.
The result for `C[C@@H]1OCC2(CCN(c3cnc4c(N5CCCc6c5cccc6S(=O)(=O)C5COC5)n[nH]c4n3)CC2)[C@@H]1N` [Compound 464] reads less than 1000 nM.
Then `C[C@@H]1OCC2(CCN(c3cnc4c(N5CCCc6c5cccc6S(=O)(=O)c5cnn(C)c5)n[nH]c4n3)CC2)[C@@H]1N` [Compound 465], with less than 1000 nM.
In turn, `CC(=O)N(C)Cc1cccc2c1CCCN2c1n[nH]c2nc(N3CCC4(CC3)CO[C@@H](C)[C@H]4N)cnc12` [Compound 466] gave an IC50 of less than 1000 nM.
The result for `N[C@@H]1C[C@H](O)CC12CCN(c1cnc3c(N4CCCc5ncccc54)n[nH]c3n1)CC2` [Compound 467, (2R,4R)-4-amino-8-[3-(1,2,3,4-tetrahydro-1,5-naphthyridin-1-yl)-1H-pyrazolo[3,4-b]pyrazin-6-yl]-8-azaspiro[4.5]decan-2-ol] reads less than 1000 nM; that for `CO[C@H]1C[C@@H](N2CCN(c3n[nH]c4nc(N5CCC6(CC5)CO[C@@H](C)[C@H]6N)cnc34)c3ccc(C#N)cc32)C1` [Compound 469], less than 1000 nM.
The result for `CO[C@H]1C[C@H](N2CCN(c3n[nH]c4nc(N5CCC6(CC5)CO[C@@H](C)[C@H]6N)cnc34)c3ccc(C#N)cc32)C1` [Compound 470] reads less than 1000 nM; that for `CC(=O)N1CC(N2CCN(c3n[nH]c4nc(N5CCC6(CC5)CO[C@@H](C)[C@H]6N)cnc34)c3ccc(C#N)cc32)C1` [Compound 471], less than 1000 nM.
Then `CC1(N)CCN(c2cnc3c(NCc4ccccc4)n[nH]c3n2)CC1` [Compound 473, 6-(4-amino-4-methyl-1-piperidyl)-N-benzyl-1H-pyrazolo[3,4-b]pyrazin-3-amine], with 1000 to 10000 nM; and `CNCCN(C)c1n[nH]c2nc(N3CCC(C)(CN)CC3)cnc12` [Compound 474], with not below 10000 nM.
`CC1(N)CCN(c2cnc3c(Sc4ccc[nH]c4=O)n[nH]c3n2)CC1` [Compound 475, 3-((6-(4-amino-4-methylpiperidin-1-yl)-1H-pyrazolo[3,4-b]pyrazin-3-yl)thio)pyridin-2(1H)-one] had an IC50 of 1000 to 10000 nM.
Then `CC1(N)CCN(c2cnc3c(Sc4cc[nH]c(=O)c4Cl)n[nH]c3n2)CC1` [Compound 477, 4-((6-(4-amino-4-methylpiperidin-1-yl)-1H-pyrazolo[3,4-b]pyrazin-3-yl)thio)-3-chloropyridin-2(1H)-one], with less than 1000 nM.
